We go through eight molecules from US20230174667A1 (priority 2020, published 2023).

The test system of test [1] is NF-κB. Put plainly: Inhibition of SARS-CoV-2-induced NF-κB activation in A549/NF-κB-luc cells (luciferase). It counts as cell-based, human.
Test [2] has as its system heat-inactivated SARS-CoV-2. Put plainly: Inhibition of SARS-CoV-2 uptake into RAW 264.7 murine macrophages (flow cytometry). The test is classed as cell-based. Particulars: co-administered with SARS-CoV-2.
The subject of test [3] is NF-κB. The test can be described thus: Inhibition of SARS-CoV-2-induced NF-κB activation in RAW 264.7/NF-κB-luc cells (luciferase). The test is classed as cell-based, murine. Particulars: same agents as in the RAW 264.7 uptake test.

Turning to `Cn1c2ccccc2c2c3c(c4c5ccccc5n(CCC#N)c4c21)CNC3=O` [Gö 6983, Gö 6976], in the test with NF-κB [1], the “inhibition of SARS-CoV-2-induced NF-κB activation (percent inhibition, FIG. 5)” value (from here on “inhibition … (percent inhibition, FIG. 5)”) is on record as “significantly (p<0.05) inhibited”. For the same molecule, in test [2], the “inhibition of SARS-CoV-2 cellular uptake (percent inhibition, FIG. 7)” value (“inhibition … (percent inhibition, FIG. 7)” below) was “significantly (p<0.05) inhibited”. Further, the “inhibition of SARS-CoV-2-induced NF-κB activation (percent inhibition, FIG. 8)” value (shortened to “inhibition … (percent inhibition, FIG. 8)”) with NF-κB [3] is “inhibited”.
For the molecule `NC(N)=NC(=O)c1nc(Cl)c(N2CCCCCC2)nc1N` [hexamethylene amiloride], the “inhibition … (percent inhibition, FIG. 5)” value in the test with NF-κB [1] was “significantly (p<0.05) inhibited”. Besides, the “inhibition … (percent inhibition, FIG. 7)” value in test [2] is reported as “significantly (p<0.05) inhibited”. Besides, the “inhibition … (percent inhibition, FIG. 8)” value with NF-κB [3] is “inhibited”.
On to “PRRAR peptide: PRRAR peptide from the heparin-binding motif of the S1 subunit of the SARS-CoV-2 spike protein (Pro681-Arg685) (UniProt P0DTC2 681-685, looked up, fragment)”, for which the “inhibition … (percent inhibition, FIG. 7)” value in test [2] was “significantly (p<0.05) inhibited”. Moreover, the “inhibition … (percent inhibition, FIG. 8)” value with NF-κB [3] is reported as “inhibited”.
In the case of “SPRRARSV peptide: SPRRARSV (Ser680-Val687, includes the PRRAR heparin-binding motif) from the S1 subunit of the SARS-CoV-2 spike protein”, in the test on NF-κB [1], the “inhibition … (percent inhibition, FIG. 5)” value is on record as “significantly (p<0.05) inhibited”.
Take “TAT peptide: amino acid sequence YGRKKRRQRRR, synthesized by PepScan”: the “inhibition … (percent inhibition, FIG. 5)” value in the test with NF-κB [1] was “significantly (p<0.05) inhibited”.
heparan sulfate: the “inhibition … (percent inhibition, FIG. 5)” value with NF-κB [1] was “significantly (p<0.05) inhibited”. Further, in test [2], the “inhibition … (percent inhibition, FIG. 7)” value is given as “significantly (p<0.05) inhibited”. Moreover, in the test with NF-κB [3], the “inhibition … (percent inhibition, FIG. 8)” value is “inhibited”.
For “polyarginine: R8, amino acid sequence RRRRRRRR, synthesized by PepScan”, the “inhibition … (percent inhibition, FIG. 5)” value with NF-κB [1] is “significantly (p<0.05) inhibited”.

B1: recombinant SDC4: recombinant SDC4, RnD Systems, Cat. no. 2918-SD (protein, UniProt P31431 19-198, looked up)
Syndecan-4: ESIRETEVIDPQDLLEGRYFSGALPDDEDVVGPGQESDDFELSGSGDLDDLEDSMIGPEVVHPLVPLDNHIPERAGSGSQVPTEPKKLEENEVIPKRISPVEESEDVSNKVSMSSTVQGSNIFERTEVLAALIVGGIVGILFAVFLILLLMYRMKKKDEGSYDLGKKPIYKKAPTNEFYA
Consider B1, for which, in the test on NF-κB [1], the “inhibition … (percent inhibition, FIG. 5)” value is “significantly (p<0.05) inhibited”. Further, the “inhibition … (percent inhibition, FIG. 7)” value in test [2] was “significantly (p<0.05) inhibited”. The “inhibition … (percent inhibition, FIG. 8)” value in the test with NF-κB [3] was “inhibited”.
